# From ChEMBL document CHEMBL3286360, “Tuning the antimicrobial pharmacophore to enable discovery of short lipopeptides with multiple modes of action” (Eur J Med Chem, 2014)
# Where a SMILES comes first, the peptide text is derived from it. The star is where a group is joined. Stearoyl = CCCCCCCCCCCCCCCCCC(=O)*; Palmitoyl = CCCCCCCCCCCCCCCC(=O)*; Myristoyl = CCCCCCCCCCCCCC(=O)*; Lauroyl = CCCCCCCCCCCC(=O)*; Decanoyl = CCCCCCCCCC(=O)*; Octanoyl = CCCCCCCC(=O)*; Hexanoyl = CCCCCC(=O)*
# How the values were obtained:
# Assay type in all cases: functional
# [1] = test system: Escherichia coli; experiment: Antimicrobial activity against Escherichia coli ATCC 25922 after 17 to 20 hrs by serial dilution method
# [2] = test system: Candida albicans; experiment: Antimicrobial activity against Candida albicans ATCC 14053 after 17 to 20 hrs by serial dilution method
# [3] = test system: Staphylococcus aureus; experiment: Antimicrobial activity against Staphylococcus aureus ATCC 12600 after 17 to 20 hrs by serial dilution method
SMILES,MIC [1] [µg/mL],MIC [2] [µg/mL],MIC [3] [µg/mL]
CCCCCCCCCC(=O)N[C@@H](CCCNC(=N)N)C(=O)N[C@@H](Cc1c[nH]c2ccccc12)C(=O)N[C@@H](CCCNC(=N)N)C(N)=O (Decanoyl-Arg-Trp-Arg-NH2),15.6,> 62.5,7.8
CCCCCCCCCC(=O)N[C@@H](CCCCN)C(=O)N[C@H](C(=O)N[C@@H](CCCCN)C(=O)N[C@@H](CCCNC(=N)N)C(=O)N[C@@H](Cc1c[nH]c2ccccc12)C(=O)N[C@@H](CCCNC(=N)N)C(N)=O)[C@@H](C)CC (Decanoyl-KIKRWR-NH2),31.2,> 62.5,15.6
CCCCCCCCCC(=O)N[C@@H](CCCCN)C(=O)N[C@H](C(=O)N[C@@H](CCCCN)C(=O)N[C@@H](CCCNC(=N)N)C(=O)N[C@@H](Cc1c[nH]c2ccccc12)C(=O)N[C@@H](Cc1c[nH]c2ccccc12)C(=O)N[C@@H](CCCNC(=N)N)C(N)=O)[C@@H](C)CC (Decanoyl-KIKRWWR-NH2),7.8,> 62.5,3.9
CCCCCCCCCC(=O)N[C@@H](CCCCN)C(=O)N[C@H](C(=O)N[C@@H](CCCNC(=N)N)C(=O)N[C@@H](Cc1c[nH]c2ccccc12)C(=O)N[C@@H](Cc1c[nH]c2ccccc12)C(=O)N[C@@H](CCCNC(=N)N)C(N)=O)[C@@H](C)CC (Decanoyl-KIRWWR-NH2),15.6,> 62.5,3.9
CCCCCCCCCC(=O)N[C@@H](CCCCN)C(=O)N[C@H](C(=O)N[C@@H](Cc1c[nH]c2ccccc12)C(=O)N[C@@H](Cc1c[nH]c2ccccc12)C(=O)N[C@@H](CCCCN)C(N)=O)[C@@H](C)CC (Decanoyl-KIWWK-NH2),7.8,15.6,3.9
CCCCCCCCCC(=O)N[C@@H](CCCCN)C(=O)N[C@@H](CCCCN)C(=O)N[C@H](C(=O)N[C@@H](CCCNC(=N)N)C(=O)N[C@@H](Cc1c[nH]c2ccccc12)C(=O)N[C@@H](CCCNC(=N)N)C(N)=O)[C@@H](C)CC (Decanoyl-KKIRWR-NH2),7.8,> 62.5,7.8
CCCCCCCCCC(=O)N[C@@H](CCCCN)C(=O)N[C@@H](CCCCN)C(=O)N[C@@H](Cc1c[nH]c2ccccc12)C(=O)N[C@@H](CCCCN)C(N)=O (Decanoyl-KKWK-NH2),> 31.2,> 62.5,31.2
CCCCCCCCCC(=O)N[C@@H](CCCCN)C(=O)N[C@@H](CCCCN)C(=O)N[C@@H](Cc1c[nH]c2ccccc12)C(=O)N[C@@H](Cc1c[nH]c2ccccc12)C(N)=O (Decanoyl-KKWW-NH2),7.8,31.2,3.9
CCCCCCCCCC(=O)N[C@@H](CCCCN)C(=O)N[C@@H](CCCNC(=N)N)C(=O)N[C@H](C(=O)N[C@@H](Cc1c[nH]c2ccccc12)C(=O)N[C@@H](Cc1c[nH]c2ccccc12)C(=O)N[C@@H](CCCNC(=N)N)C(N)=O)[C@@H](C)CC (Decanoyl-KRIWWR-NH2),7.8,> 62.5,3.9
CCCCCCCCCC(=O)N[C@@H](CCCCN)C(=O)N[C@@H](Cc1c[nH]c2ccccc12)C(=O)N[C@@H](Cc1c[nH]c2ccccc12)C(=O)N[C@@H](CCCCN)C(N)=O (Decanoyl-KWWK-NH2),15.6,31.2,7.8
CCCCCCCCCC(=O)N[C@@H](CCCNC(=N)N)C(=O)N[C@@H](Cc1c[nH]c2ccccc12)C(=O)N[C@@H](CCCNC(=N)N)C(=O)N[C@@H](Cc1c[nH]c2ccccc12)C(N)=O (Decanoyl-RWRW-NH2),15.6,> 62.5,7.8
CCCCCCCCCC(=O)N[C@@H](CCCNC(=N)N)C(=O)N[C@@H](Cc1c[nH]c2ccccc12)C(=O)N[C@@H](Cc1c[nH]c2ccccc12)C(=O)N[C@@H](CCCNC(=N)N)C(N)=O (Decanoyl-RWWR-NH2),15.6,15.6,7.8
CCCCCC(=O)N[C@@H](CCCNC(=N)N)C(=O)N[C@@H](CCCCN)C(=O)N[C@@H](Cc1c[nH]c2ccccc12)C(=O)N[C@@H](Cc1c[nH]c2ccccc12)C(=O)N[C@@H](CCCCN)C(N)=O (Hexanoyl-RKWWK-NH2),> 62.5,,31.2
CCCCCCCCCCCC(=O)N[C@@H](CCCNC(=N)N)C(=O)N[C@@H](CCCCN)C(=O)N[C@@H](Cc1c[nH]c2ccccc12)C(=O)N[C@@H](Cc1c[nH]c2ccccc12)C(=O)N[C@@H](CCCCN)C(N)=O (Lauroyl-RKWWK-NH2),7.8,,7.8
CCCCCCCCCCCCCC(=O)N[C@@H](CCCNC(=N)N)C(=O)N[C@@H](Cc1c[nH]c2ccccc12)C(=O)N[C@@H](CCCNC(=N)N)C(N)=O (Myristoyl-Arg-Trp-Arg-NH2),15.6,> 62.5,15.6
CCCCCCCCCCCCCC(=O)N[C@@H](CCCCN)C(=O)N[C@H](C(=O)N[C@@H](CCCCN)C(=O)N[C@@H](CCCNC(=N)N)C(=O)N[C@@H](Cc1c[nH]c2ccccc12)C(=O)N[C@@H](CCCNC(=N)N)C(N)=O)[C@@H](C)CC (Myristoyl-KIKRWR-NH2),15.6,> 62.5,3.9

SMILES,MIC [1] [µg/mL],MIC [2] [µg/mL],MIC [3] [µg/mL]
CCCCCCCCCCCCCC(=O)N[C@@H](CCCCN)C(=O)N[C@H](C(=O)N[C@@H](CCCCN)C(=O)N[C@@H](CCCNC(=N)N)C(=O)N[C@@H](Cc1c[nH]c2ccccc12)C(=O)N[C@@H](Cc1c[nH]c2ccccc12)C(=O)N[C@@H](CCCNC(=N)N)C(N)=O)[C@@H](C)CC (Myristoyl-KIKRWWR-NH2),31.2,> 62.5,15.6
CCCCCCCCCCCCCC(=O)N[C@@H](CCCCN)C(=O)N[C@H](C(=O)N[C@@H](CCCNC(=N)N)C(=O)N[C@@H](Cc1c[nH]c2ccccc12)C(=O)N[C@@H](Cc1c[nH]c2ccccc12)C(=O)N[C@@H](CCCNC(=N)N)C(N)=O)[C@@H](C)CC (Myristoyl-KIRWWR-NH2),31.2,> 62.5,15.6
CCCCCCCCCCCCCC(=O)N[C@@H](CCCCN)C(=O)N[C@H](C(=O)N[C@@H](Cc1c[nH]c2ccccc12)C(=O)N[C@@H](Cc1c[nH]c2ccccc12)C(=O)N[C@@H](CCCCN)C(N)=O)[C@@H](C)CC (Myristoyl-KIWWK-NH2),31.2,31.2,7.8
CCCCCCCCCCCCCC(=O)N[C@@H](CCCCN)C(=O)N[C@@H](CCCCN)C(=O)N[C@H](C(=O)N[C@@H](CCCNC(=N)N)C(=O)N[C@@H](Cc1c[nH]c2ccccc12)C(=O)N[C@@H](CCCNC(=N)N)C(N)=O)[C@@H](C)CC (Myristoyl-KKIRWR-NH2),7.8,> 62.5,3.9
CCCCCCCCCCCCCC(=O)N[C@@H](CCCCN)C(=O)N[C@@H](CCCCN)C(=O)N[C@@H](Cc1c[nH]c2ccccc12)C(=O)N[C@@H](CCCCN)C(N)=O (Myristoyl-KKWK-NH2),7.8,> 62.5,3.9
CCCCCCCCCCCCCC(=O)N[C@@H](CCCCN)C(=O)N[C@@H](CCCCN)C(=O)N[C@@H](Cc1c[nH]c2ccccc12)C(=O)N[C@@H](Cc1c[nH]c2ccccc12)C(N)=O (Myristoyl-KKWW-NH2),15.6,15.6,7.8
CCCCCCCCCCCCCC(=O)N[C@@H](CCCCN)C(=O)N[C@@H](CCCNC(=N)N)C(=O)N[C@H](C(=O)N[C@@H](Cc1c[nH]c2ccccc12)C(=O)N[C@@H](Cc1c[nH]c2ccccc12)C(=O)N[C@@H](CCCNC(=N)N)C(N)=O)[C@@H](C)CC (Myristoyl-KRIWWR-NH2),15.6,> 62.5,7.8
CCCCCCCCCCCCCC(=O)N[C@@H](CCCNC(=N)N)C(=O)N[C@H](C(=O)N[C@@H](CCCCN)C(=O)N[C@@H](Cc1c[nH]c2ccccc12)C(=O)N[C@@H](Cc1c[nH]c2ccccc12)C(=O)N[C@@H](CCCCN)C(N)=O)[C@@H](C)CC (Myristoyl-RIKWWK-NH2),15.6,> 62.5,7.8
CCCCCCCCCCCCCC(=O)N[C@@H](CCCNC(=N)N)C(=O)N[C@@H](CCCCN)C(=O)N[C@@H](Cc1c[nH]c2ccccc12)C(=O)N[C@@H](Cc1c[nH]c2ccccc12)C(=O)N[C@@H](CCCCN)C(N)=O (Myristoyl-RKWWK-NH2),15.6,> 62.5,7.8
CCCCCCCCCCCCCC(=O)N[C@@H](CCCNC(=N)N)C(=O)N[C@@H](Cc1c[nH]c2ccccc12)C(=O)N[C@@H](CCCNC(=N)N)C(=O)N[C@@H](Cc1c[nH]c2ccccc12)C(N)=O (Myristoyl-RWRW-NH2),15.6,> 62.5,15.6
CCCCCCCCCCCCCC(=O)N[C@@H](CCCNC(=N)N)C(=O)N[C@@H](Cc1c[nH]c2ccccc12)C(=O)N[C@@H](Cc1c[nH]c2ccccc12)C(=O)N[C@@H](CCCNC(=N)N)C(N)=O (Myristoyl-RWWR-NH2),15.6,> 62.5,7.8
CCCCCCCC(=O)N[C@@H](CCCNC(=N)N)C(=O)N[C@@H](CCCCN)C(=O)N[C@@H](Cc1c[nH]c2ccccc12)C(=O)N[C@@H](Cc1c[nH]c2ccccc12)C(=O)N[C@@H](CCCCN)C(N)=O (Octanoyl-RKWWK-NH2),62.5,,15.6
CCCCCCCCCCCCCCCC(=O)N[C@@H](CCCNC(=N)N)C(=O)N[C@@H](CCCCN)C(=O)N[C@@H](Cc1c[nH]c2ccccc12)C(=O)N[C@@H](Cc1c[nH]c2ccccc12)C(=O)N[C@@H](CCCCN)C(N)=O (Palmitoyl-RKWWK-NH2),31.2,,31.2
CCCCCCCCCCCCCCCCCC(=O)N[C@@H](CCCNC(=N)N)C(=O)N[C@@H](Cc1c[nH]c2ccccc12)C(=O)N[C@@H](CCCNC(=N)N)C(N)=O (Stearoyl-Arg-Trp-Arg-NH2),> 31.2,> 62.5,> 31.2
CCCCCCCCCCCCCCCCCC(=O)N[C@@H](CCCCN)C(=O)N[C@H](C(=O)N[C@@H](CCCCN)C(=O)N[C@@H](CCCNC(=N)N)C(=O)N[C@@H](Cc1c[nH]c2ccccc12)C(=O)N[C@@H](CCCNC(=N)N)C(N)=O)[C@@H](C)CC (Stearoyl-KIKRWR-NH2),> 31.2,> 62.5,> 31.2
CCCCCCCCCCCCCCCCCC(=O)N[C@@H](CCCCN)C(=O)N[C@H](C(=O)N[C@@H](CCCCN)C(=O)N[C@@H](CCCNC(=N)N)C(=O)N[C@@H](Cc1c[nH]c2ccccc12)C(=O)N[C@@H](Cc1c[nH]c2ccccc12)C(=O)N[C@@H](CCCNC(=N)N)C(N)=O)[C@@H](C)CC (Stearoyl-KIKRWWR-NH2),> 31.2,> 62.5,> 31.2
